From patent US20250163070A1, “SPIRO COMPOUND AND APPLICATION THEREOF” (HITGEN INC., priority 2022, published 2025) come the findings set out here.

SMILES strings stand for the structures.

In assay [1] the target is T1, CRBN/DDB1 protein (Homo sapiens (Human), UniProt Q96SW2). Description: Inhibition of CRBN/DDB1 protein activity, fluorescence resonance energy transfer (FRET) method with FITC-labeled thalidomide analog. It is filed as binding. As to conditions: 5.0 nM CRBN/DDB1, 50.0 nM FITC-labeled thalidomide analog, 25° C., pH 7.0. The source says: Experiment 1 Detection of Compounds Inhibition of CRBN/DDB1 Protein Activity (Using a Fluorescence Resonance Energy Transfer (FRET) Method)
T1 sequence (Q96SW2 whole entry, species assumed): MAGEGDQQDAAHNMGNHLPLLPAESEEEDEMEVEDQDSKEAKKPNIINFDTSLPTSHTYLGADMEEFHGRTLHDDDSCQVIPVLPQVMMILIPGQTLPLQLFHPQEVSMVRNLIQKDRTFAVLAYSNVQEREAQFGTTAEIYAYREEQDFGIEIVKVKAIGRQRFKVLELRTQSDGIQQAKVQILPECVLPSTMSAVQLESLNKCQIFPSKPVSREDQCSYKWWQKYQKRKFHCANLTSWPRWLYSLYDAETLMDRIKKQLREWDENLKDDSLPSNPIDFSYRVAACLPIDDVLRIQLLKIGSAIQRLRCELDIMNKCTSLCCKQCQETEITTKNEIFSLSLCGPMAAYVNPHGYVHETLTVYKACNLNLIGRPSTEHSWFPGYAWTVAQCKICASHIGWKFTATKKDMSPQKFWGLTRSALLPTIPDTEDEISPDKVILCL
T1 sequence (Q16531 whole entry partner, species assumed): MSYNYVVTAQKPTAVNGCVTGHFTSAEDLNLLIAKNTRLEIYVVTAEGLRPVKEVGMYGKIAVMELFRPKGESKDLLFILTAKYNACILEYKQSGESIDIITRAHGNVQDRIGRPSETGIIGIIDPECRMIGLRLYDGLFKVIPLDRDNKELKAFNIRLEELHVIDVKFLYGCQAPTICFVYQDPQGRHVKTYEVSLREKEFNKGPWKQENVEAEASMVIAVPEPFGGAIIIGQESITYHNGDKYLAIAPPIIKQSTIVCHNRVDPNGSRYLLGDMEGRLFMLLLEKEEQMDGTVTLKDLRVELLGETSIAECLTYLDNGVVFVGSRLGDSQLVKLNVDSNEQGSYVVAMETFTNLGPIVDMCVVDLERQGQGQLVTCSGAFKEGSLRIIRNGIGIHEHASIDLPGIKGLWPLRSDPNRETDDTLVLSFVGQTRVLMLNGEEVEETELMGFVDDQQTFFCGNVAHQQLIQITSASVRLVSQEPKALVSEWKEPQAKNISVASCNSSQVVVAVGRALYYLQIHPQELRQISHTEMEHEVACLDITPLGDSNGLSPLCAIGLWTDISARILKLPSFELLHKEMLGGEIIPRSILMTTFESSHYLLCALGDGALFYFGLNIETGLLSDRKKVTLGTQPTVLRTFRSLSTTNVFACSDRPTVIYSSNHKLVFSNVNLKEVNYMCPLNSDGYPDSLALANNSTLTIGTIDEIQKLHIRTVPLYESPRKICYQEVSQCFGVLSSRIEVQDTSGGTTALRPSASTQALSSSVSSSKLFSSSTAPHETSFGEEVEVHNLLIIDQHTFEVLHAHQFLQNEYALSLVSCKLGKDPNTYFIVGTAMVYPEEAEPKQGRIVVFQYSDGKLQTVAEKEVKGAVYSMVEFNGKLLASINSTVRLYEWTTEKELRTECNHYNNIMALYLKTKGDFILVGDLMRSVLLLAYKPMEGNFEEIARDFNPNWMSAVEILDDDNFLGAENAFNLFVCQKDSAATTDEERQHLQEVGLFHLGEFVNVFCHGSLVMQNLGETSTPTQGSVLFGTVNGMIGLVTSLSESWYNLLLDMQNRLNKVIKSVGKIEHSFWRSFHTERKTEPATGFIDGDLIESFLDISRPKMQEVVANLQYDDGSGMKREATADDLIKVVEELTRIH
Microplate reader (BMG PHERAstar FSX), ECHO (LABCYTE Echo 665), microplate thermostatic oscillator (Hangzhou Ruicheng Instrument Co., Ltd.), disodium hydrogen phosphate (Sigma-Aldrich (Shanghai) Trading Co., Ltd.), sodium dihydrogen phosphate (Sigma-Aldrich (Shanghai) Trading Co., Ltd.), bovine serum albumin (Sigma-Aldrich (Shanghai) Trading Co., Ltd.), Anti-6His-Tb crypate Gold (Cisbio Bioassays Company CISBIO), CRBN/DDB1 protein (HitGen Inc.), 384-well plate (Grenier Bio-one (Shanghai) Co., Ltd.).
The compound powders were dissolved in DMSO and serially diluted using ECHO. The resulting dilutions were individually added to 384-well reaction plates, ensuring that the final concentration of DMSO in the entire reaction system (10.0 μL) was 1.0%. An equal volume of DMSO was added as a control.
The CRBN/DDB1 protein was diluted to twice the required final concentration (5.0 nM) by addition of 20 mM disodium hydrogen phosphate, 20 mM sodium dihydrogen phosphate, 0.08% bovine serum albumin and a buffer with pH 7.0. […] The Anti-6His-Tb crypate Gold and FITC-labeled thalidomide analog were diluted to twice the required final concentration by addition of 20 mM disodium hydrogen phosphate, 20 mM sodium dihydrogen phosphate, 0.08% bovine serum albumin and the buffer with pH 7.0. The final concentration of Anti-6His-Tb crypate Gold was 0.2 nM, and the final concentration of the FITC-labeled thalidomide analog was 50.0 nM, so as to obtain a mixture of Anti-6His-Tb crypate Gold/FITC-labeled thalidomide analog. 5.0 μL of the mixture of Anti-6His-Tb crypate Gold/FITC-labeled thalidomide analog was individually added to the 384-well reaction plates, followed by centrifugation at 1000 rpm for 1 min. Then the reaction plates were incubated in the microplate thermostatic oscillator at 25° C. and 250 rpm for 30 min. After the reaction was completed, the fluorescence signal values in the 384-well reaction plates were read using the microplate reader (Ex=337 nm, Em=520/490 nm).
A solvent group (containing 5.0 nM CRBN/DDB1, 0.2 nM Anti-6His-Tb crypate Gold, 50.0 nM FITC-labeled thalidomide analog and 1.0% DMSO) was used as a negative control. A reaction buffer group (containing 0.2 nM Anti-6His-Tb crypate Gold, 50.0 nM FITC-labeled thalidomide analog and 1.0% DMSO) was used as the blank control.
The residual activity percentage at each concentration was calculated using the following formula: […]
A dose-effect curve was fitted using GraphPad 6.0 to calculate the IC50 value.

Assay [2] addresses T1, CRBN/DDB1 protein. Description: Isothermal titration calorimetry (ITC) detection of compound binding to CRBN/DDB1. To be noted: 25° C., pH 7.0, 10 μM protein, 100 μM compound, one set of sites model. For orientation: In ITC the heat of successive injections is recorded.
Procedure: Experiment 2 Isothermal Titration Calorimetry (ITC) Detection of Compound Binding to CRBN/DDB1
6.1 mL of 200 mM disodium hydrogen phosphate aqueous solution and 3.9 mL of 200 mM sodium dihydrogen phosphate aqueous solution were mixed to obtain 200 mM PB buffer (pH 7.0). Then, 5397 μL of deionized water was mixed with 600 μL of 200 mM PB buffer and 3 μL of 10% Tween 20 aqueous solution to prepare a detection buffer with a pH of 7.0.
The protein storage solution was subjected to buffer exchange using the detection buffer prepared above according to the instruction of the Zeba™ Spin Desalting Columns (Thermo Fisher Scientific Inc., #89882). After the exchange was completed, ultraviolet (UV) absorption of the protein solution at OD280nm was measured using the microplate reader (BMG LABTECH Inc., PHERAstar FSX), and the concentration was calculated. Based on the measured concentration, the protein was diluted to 10 μM with the detection buffer, and added with DMSO to a final concentration of 1%, resulting in a total volume of 300 μL. After a brief centrifugation at room temperature, the solution was collected for later use.
The compound powder was dissolved in DMSO and diluted to 100 μM with the detection buffer prepared above. The DMSO concentration was adjusted to a final concentration of 1% with a total volume of 100 μL. […]

The IC50 is the midpoint of a concentration-inhibition curve. Higher therefore signals weaker potency. One may read the Kd as a measure of binding affinity in units of concentration.

For the molecule `CN(C)C(=O)c1c(C(=O)N2CC3(CC(=O)NC3=O)C2)sc2ccccc12` [Compound A2], the IC50 at CRBN/DDB1 protein [1] lay in the range of 100 to 1000 nM.

Regarding `CN(C)C(=O)c1[nH]c2ccccc2c1C(=O)N1CC2(CC(=O)NC2=O)C1` [Compound A3], on CRBN/DDB1 protein [1], the half-maximal inhibitory concentration (IC50) is less than 100 nM. Further, at CRBN/DDB1 protein [2], the affinity, expressed as Kd, was 15 nM.

Consider `CN(C)C(=O)c1ccc(C(=O)N2CC3(CC(=O)NC3=O)C2)cc1` [Compound A4], for which the IC50 at CRBN/DDB1 protein [1] lay in the range of 1000 to 10000 nM.

For the molecule `CN(C)C(=O)c1cccc(C(=O)N2CC3(CC(=O)NC3=O)C2)c1` [Compound A5], the IC50 on CRBN/DDB1 protein [1] fell in the range of 1000 to 10000 nM.

At CRBN/DDB1 protein [1], `CN(C)C(=O)c1cscc1C(=O)N1CC2(CC(=O)NC2=O)C1` [Compound A6] registered an IC50 of 100 to 1000 nM.

`O=C1CC2(CN(C(=O)c3c(C(=O)NC4CCCCC4)sc4ccccc34)C2)C(=O)N1` [Compound A7]: the half-inhibitory concentration (IC50) against CRBN/DDB1 protein [1] is less than 100 nM.

The molecule `O=C1CC2(CN(C(=O)c3c(C(=O)N4CCNCC4)sc4ccccc34)C2)C(=O)N1` [Compound A8] yielded an IC50 against CRBN/DDB1 protein [1] of less than 100 nM.

Turning to `O=C1CC2(CN(C(=O)c3c(C(=O)N4CC5(COC5)C4)sc4ccccc34)C2)C(=O)N1` [Compound A9], the half-maximal inhibitory concentration (IC50) on CRBN/DDB1 protein [1] was less than 100 nM.

Turning to `NC(=O)c1sc2ccccc2c1C(=O)N1CC2(CC(=O)NC2=O)C1` [Compound A10], at CRBN/DDB1 protein [1], the IC50 is 100 to 1000 nM.

Take `CC(=O)N1CCN(C(=O)c2sc3ccccc3c2C(=O)N2CC3(CC(=O)NC3=O)C2)CC1` [Compound A11]: the IC50 on CRBN/DDB1 protein [1] was less than 100 nM.

`O=C1CC2(CN(C(=O)c3cc4ccccc4s3)C2)C(=O)N1` [Compound A12] registered a half-inhibitory concentration (IC50) on CRBN/DDB1 protein [1] of 1000 to 10000 nM.

`O=C1CC2(CN(C(=O)c3csc4ccccc34)C2)C(=O)N1` [Compound A13] registered an IC50 against CRBN/DDB1 protein [1] of 1000 to 10000 nM.

As to `COC(=O)c1ccccc1C(=O)N1CC2(CC(=O)NC2=O)C1` [Compound A14], the concentration for half-maximal inhibition (IC50) against CRBN/DDB1 protein [1] lay within 100 to 1000 nM.

As for `CN(C)C(=O)c1sccc1C(=O)N1CC2(CC(=O)NC2=O)C1` [Compound A15], the IC50 at CRBN/DDB1 protein [1] is 1000 to 10000 nM.

`CN(C)C(=O)c1[nH]c2ccccc2c1CN1CC2(CC(=O)NC2=O)C1` [Compound A17] came in with a concentration for half-maximal inhibition (IC50) on CRBN/DDB1 protein [1] of 100000 to 200000 nM.

Molecule `CN(C)C(=O)c1c(C(=O)N2CC3(CC(=O)NC3=O)C2)c2ccccc2n1C` [Compound A19] registered an IC50 against CRBN/DDB1 protein [1] of less than 100 nM.
